Measurements published in patent US11420973B2, “Amide substituted indole compounds useful as TLR inhibitors” (BRISTOL-MYERS SQUIBB COMPANY, priority 2017, dated 2022).
Structures can show the parent of a compound that is named as a salt. Where two headings read alike, the source gives them in different places.

How the values were obtained:
human TLR7 = human TLR7 (Homo sapiens (Human), UniProt Q9NYK1); assay: TLR7 inhibition reporter assay (HEK-Blue SEAP reporter, gardiquimod stimulation); format: cell-based; conditions: HEK-Blue cells overexpressing human TLR7, gardiquimod 7.5 μM
human TLR7, sequence (Q9NYK1 27-1049): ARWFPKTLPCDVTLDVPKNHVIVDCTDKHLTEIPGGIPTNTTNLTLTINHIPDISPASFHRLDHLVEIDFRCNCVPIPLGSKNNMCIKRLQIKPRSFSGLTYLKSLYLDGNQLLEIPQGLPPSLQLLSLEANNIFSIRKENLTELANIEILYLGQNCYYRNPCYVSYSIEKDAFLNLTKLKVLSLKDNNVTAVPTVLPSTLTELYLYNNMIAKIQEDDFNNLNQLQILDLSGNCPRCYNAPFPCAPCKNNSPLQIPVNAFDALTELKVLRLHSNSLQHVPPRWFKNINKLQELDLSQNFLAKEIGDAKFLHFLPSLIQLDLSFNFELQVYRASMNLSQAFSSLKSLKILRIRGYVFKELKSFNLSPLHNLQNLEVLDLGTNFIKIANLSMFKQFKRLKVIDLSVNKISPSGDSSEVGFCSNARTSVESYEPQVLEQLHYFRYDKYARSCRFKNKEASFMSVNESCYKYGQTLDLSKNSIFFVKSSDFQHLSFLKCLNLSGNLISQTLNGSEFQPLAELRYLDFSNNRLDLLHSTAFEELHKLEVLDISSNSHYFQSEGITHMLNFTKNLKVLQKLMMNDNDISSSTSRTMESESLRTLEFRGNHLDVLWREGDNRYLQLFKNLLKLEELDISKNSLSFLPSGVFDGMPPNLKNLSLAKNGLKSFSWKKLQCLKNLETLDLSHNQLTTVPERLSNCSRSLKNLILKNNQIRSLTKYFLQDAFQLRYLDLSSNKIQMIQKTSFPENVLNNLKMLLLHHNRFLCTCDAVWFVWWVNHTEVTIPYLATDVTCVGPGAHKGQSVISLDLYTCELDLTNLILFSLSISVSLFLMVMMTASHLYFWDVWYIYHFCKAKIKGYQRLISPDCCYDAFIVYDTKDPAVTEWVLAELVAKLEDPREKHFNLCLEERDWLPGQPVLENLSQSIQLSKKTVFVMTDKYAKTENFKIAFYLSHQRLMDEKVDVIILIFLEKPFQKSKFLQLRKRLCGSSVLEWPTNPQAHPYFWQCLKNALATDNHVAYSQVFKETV
Protocol: (§1) HEK-Blue™-cells (Invivogen) overexpressing human TLR7, TLR8 or TLR9 receptors were used for screening inhibitors of these receptors using an inducible SEAP (secreted embryonic alkaline phosphatase) reporter gene under the control of the IFN-β minimal promoter fused to five NF-κB and AP-1-binding sites. Briefly, cells are seeded into Greiner 384 well plates (15000 cells per well for TLR7, 20,000 for TLR8 and 25,000 for TLR9) and then treated with test compounds in DMSO to yield a final dose response concentration range of 0.05 nM-50 μM. After a 30 minute compound pre-treatment at room temperature, the cells are then stimulated with a TLR7 ligand (gardiquimod at a final concentration of 7.5 μM), TLR8 ligand (R848 at a final concentration of 15.9 μM) or TLR9 ligand (ODN2006 at a final concentration of 5 nM) to activate NF-κB and AP-1 which induce the production of SEAP. After a 22 hour incubation at 37° C., 5% CO2, SEAP levels are determined with the addition of HEK-Blue™ Detection reagent (Invivogen), a cell culture medium that allows for detection of SEAP, according to manufacturer's specifications.

human TLR9 = human TLR9 (Homo sapiens (Human), UniProt Q9NR96); assay: TLR9 inhibition reporter assay (HEK-Blue SEAP reporter, ODN2006 stimulation);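 further: SEAP reporter under IFN-β minimal promoter with five NF-κB and AP-1 sites, 22 h incubation, compounds 0.05 nM–50 µM, inhibition relative to agonist plus DMSO versus known inhibitor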
human TLR9, sequence (Q9NR96 26-1032): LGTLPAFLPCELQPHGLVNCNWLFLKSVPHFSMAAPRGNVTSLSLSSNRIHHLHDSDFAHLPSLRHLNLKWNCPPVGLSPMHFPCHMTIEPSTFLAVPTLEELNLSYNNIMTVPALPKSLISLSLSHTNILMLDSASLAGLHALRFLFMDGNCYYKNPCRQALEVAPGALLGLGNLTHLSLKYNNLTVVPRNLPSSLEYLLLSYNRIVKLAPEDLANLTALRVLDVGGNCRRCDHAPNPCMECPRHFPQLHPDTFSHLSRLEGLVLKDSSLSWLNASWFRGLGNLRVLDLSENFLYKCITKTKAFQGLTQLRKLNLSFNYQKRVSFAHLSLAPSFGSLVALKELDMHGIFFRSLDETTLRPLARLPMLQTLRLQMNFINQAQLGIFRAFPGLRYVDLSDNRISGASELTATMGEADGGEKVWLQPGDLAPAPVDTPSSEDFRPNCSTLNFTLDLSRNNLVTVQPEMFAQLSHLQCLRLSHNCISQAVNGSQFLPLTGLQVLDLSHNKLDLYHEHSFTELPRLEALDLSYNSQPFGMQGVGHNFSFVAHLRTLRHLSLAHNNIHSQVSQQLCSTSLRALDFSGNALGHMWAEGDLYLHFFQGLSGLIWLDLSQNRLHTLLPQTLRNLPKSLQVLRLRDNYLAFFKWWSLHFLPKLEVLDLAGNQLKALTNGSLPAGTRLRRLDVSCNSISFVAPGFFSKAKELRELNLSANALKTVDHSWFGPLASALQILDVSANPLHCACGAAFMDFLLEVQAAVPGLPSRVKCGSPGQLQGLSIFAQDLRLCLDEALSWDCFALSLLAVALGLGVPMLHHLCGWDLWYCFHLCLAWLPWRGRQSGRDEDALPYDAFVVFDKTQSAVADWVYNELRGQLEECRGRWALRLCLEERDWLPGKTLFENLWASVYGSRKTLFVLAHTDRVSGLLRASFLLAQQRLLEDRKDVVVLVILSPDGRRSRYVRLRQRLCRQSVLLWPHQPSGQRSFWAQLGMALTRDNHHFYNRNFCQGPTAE

human TLR8 = human TLR8 (Homo sapiens (Human), UniProt Q9NR97); assay: TLR8 inhibition reporter assay (HEK-Blue SEAP reporter, R848 stimulation);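 further: SEAP driven by IFN-β minimal promoter with NF-κB and AP-1 sites, 22 h incubation, compounds 0.05 nM–50 µM, inhibition scaled between agonist plus DMSO and reference inhibitor wells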
human TLR8, sequence (Q9NR97 27-1041): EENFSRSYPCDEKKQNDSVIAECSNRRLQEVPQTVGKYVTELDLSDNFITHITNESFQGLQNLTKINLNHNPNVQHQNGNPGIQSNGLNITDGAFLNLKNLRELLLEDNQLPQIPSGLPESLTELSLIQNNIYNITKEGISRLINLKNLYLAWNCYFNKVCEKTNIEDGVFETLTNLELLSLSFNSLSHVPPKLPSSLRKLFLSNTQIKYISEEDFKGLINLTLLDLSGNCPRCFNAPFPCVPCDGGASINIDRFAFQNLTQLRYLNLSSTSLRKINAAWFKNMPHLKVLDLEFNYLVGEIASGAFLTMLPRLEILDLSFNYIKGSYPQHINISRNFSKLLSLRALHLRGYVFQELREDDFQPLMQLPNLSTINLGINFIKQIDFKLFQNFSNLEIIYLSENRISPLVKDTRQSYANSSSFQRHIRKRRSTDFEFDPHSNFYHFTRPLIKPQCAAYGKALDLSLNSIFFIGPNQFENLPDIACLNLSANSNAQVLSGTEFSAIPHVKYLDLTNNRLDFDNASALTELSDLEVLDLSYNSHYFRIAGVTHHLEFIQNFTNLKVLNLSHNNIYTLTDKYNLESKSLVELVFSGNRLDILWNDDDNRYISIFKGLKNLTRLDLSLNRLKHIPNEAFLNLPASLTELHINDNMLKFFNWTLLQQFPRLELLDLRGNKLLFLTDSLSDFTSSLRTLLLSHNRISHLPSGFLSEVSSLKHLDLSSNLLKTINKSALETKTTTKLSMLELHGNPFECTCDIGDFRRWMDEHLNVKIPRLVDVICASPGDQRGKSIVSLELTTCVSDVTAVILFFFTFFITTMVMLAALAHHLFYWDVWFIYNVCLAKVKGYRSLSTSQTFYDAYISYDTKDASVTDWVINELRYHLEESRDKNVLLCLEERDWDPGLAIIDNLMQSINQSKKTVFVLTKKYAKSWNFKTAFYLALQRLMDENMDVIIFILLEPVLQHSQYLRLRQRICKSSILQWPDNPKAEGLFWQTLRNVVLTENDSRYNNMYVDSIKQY
Protocol: as §1

[1] = read-out: TLR9 IC50, HEK-Blue cells overexpressing human TLR9, ODN2006 5 nM, SEAP reporter
[2] = read-out: TLR8 IC50, HEK-Blue cells overexpressing human TLR8, R848 15.9 μM, SEAP reporter

| IC50 (human TLR7) [nM] | IC50 (human TLR9; [1]) [nM] | IC50 (human TLR8; [2]) [nM] | IC50 (human TLR9) [nM] | IC50 (human TLR8) [nM] | Structure (SMILES) |
| --- | --- | --- | --- | --- | --- |
| 1.9 | 776 | 0.34 |  |  | Cc1cc(-c2[nH]c3ccc(C(=O)N(C)C4CCN(C)CC4)cc3c2C(C)C)cc(C)n1 [Example 101, 2-(2,6-dimethylpyridin-4-yl)-3-isopropyl-N-methyl-N-(1-methylpiperidin-4-yl)-1H-indole-5-carboxamide] |
| 268 | 1680 | 246 |  |  | Cc1cc(-c2[nH]c3ccc(C(C)C(=O)N[C@H]4CCNC4)cc3c2C(C)C)ccn1 (stereo partly drawn) [Example 189, 2-(3-isopropyl-2-(2-methylpyridin-4-yl)-1H-indol-5-yl)-N—((S)-pyrrolidin-3-yl)propanamide] |
| 748 | > 50000 | 818 |  |  | Cc1cc(-c2[nH]c3ccc(C(C)C(=O)NC[C@@H](F)C(C)(C)O)cc3c2C(C)C)ccn1 (stereo partly drawn) [Example 130, N—((R)-2-fluoro-3-hydroxy-3-methylbutyl)-2-(3-isopropyl-2-(2-methylpyridin-4-yl)-1H-indol-5-yl)propanamide] |
| 202 | > 50000 | 551 |  |  | Cc1cc(-c2[nH]c3ccc(C(C)(C)C(=O)NCCC(C)(C)O)cc3c2C(C)C)ccn1 [Example 135, N-(3-hydroxy-3-methylbutyl)-2-(3-isopropyl-2-(2-methylpyridin-4-yl)-1H-indol-5-yl)-2-methylpropanamide] |
| 76 | 5350 | 54 |  |  | COc1ccc(-c2[nH]c3ccc(C(=O)N4CC5CN(C(=O)CN(C)C)CC5C4)cc3c2C(C)C)cc1OC (stereo not drawn) [Example 9, 1-(5-(2-(3,4-dimethoxyphenyl)-3-isopropyl-1H-indole-5-carbonyl)hexahydropyrrolo[3,4-c]pyrrol-2(1H)-yl)-2-(dimethylamino)ethan-1-one] |
| 128 | 1120 | 36 |  |  | Cc1cc(-c2[nH]c3ccc(C(=O)N4CCCN(C)CC4)cc3c2CC(F)F)cc(C)n1 [Example 124, (3-(2,2-difluoroethyl)-2-(2,6-dimethylpyridin-4-yl)-1H-indol-5-yl)(4-methyl-1,4-diazepan-1-yl)methanone] |
| 296 | 1050 | 124 |  |  | CCc1c(-c2ccc(OC)c(OC)c2)[nH]c2ccc(C(=O)N3CC4CNCC4C3)cc12 (stereo not drawn) [Example 79, (2-(3,4-dimethoxyphenyl)-3-ethyl-1H-indol-5-yl)(hexahydropyrrolo[3,4-c]pyrrol-2(1H)-yl)methanone] |
| 730 | 3700 | 20 |  |  | Cc1cc(-c2[nH]c3ccc(C(=O)N4CC5CN(CC(=O)N(C)C)CC5C4)cc3c2C(C)C)ccn1 (stereo not drawn) [Example 117, 2-(5-(3-isopropyl-2-(2-methylpyridin-4-yl)-1H-indole-5-carbonyl)hexahydropyrrolo[3,4-c]pyrrol-2(1H)-yl)-N,N-dimethylacetamide] |
| 335 |  |  | 334 | 36 | Cc1cc(-c2[nH]c3ccc(C(=O)N4CC5CNCC5C4)cc3c2C(C)C)ccn1 (stereo not drawn) [Example 112, (hexahydropyrrolo[3,4-c]pyrrol-2(1H)-yl)(3-isopropyl-2-(2-methylpyridin-4-yl)-1H-indol-5-yl)methanone, HCl] |
| 146 | 599 | 100 |  |  | Cc1cc(-c2[nH]c3ccc(C(C)C(=O)NC4CCC5CNCC54)cc3c2C(C)C)ccn1 (stereo not drawn) [Example 186, 2-(3-isopropyl-2-(2-methylpyridin-4-yl)-1H-indol-5-yl)-N-(octahydrocyclopenta[c]pyrrol-4-yl)propanamide] |
| 131 | 1060 | 159 |  |  | Cc1cc(-c2[nH]c3ccc(C(C)C(=O)N[C@@H]4CCCC[C@H]4N)cc3c2C(C)C)ccn1 (stereo partly drawn) [Example 216, N-((1R,2R)-2-aminocyclohexyl)-2-(3-isopropyl-2-(2-methylpyridin-4-yl)-1H-indol-5-yl)propanamide] |
| 1180 | > 50000 | 218 |  |  | CCc1c(-c2ccc(OC)c(OC)c2)[nH]c2ccc(C(=O)N3CCC(C(N)=O)CC3)cc12 [Example 34, 1-(2-(3,4-dimethoxyphenyl)-3-ethyl-1H-indole-5-carbonyl)piperidine-4-carboxamide] |
| 296 | 746 | 365 |  |  | Cc1cc(-c2[nH]c3ccc(C(C)C(=O)N4CCC(N)CC4)cc3c2C(C)C)ccn1 (stereo not drawn) [Example 203, 1-(4-aminopiperidin-1-yl)-2-(3-isopropyl-2-(2-methylpyridin-4-yl)-1H-indol-5-yl)propan-1-one] |
| 2260 | 1460 | 5650 |  |  | Cc1cc(-c2[nH]c3ccc(C(=O)N4CC5CNCC5C4)cc3c2CC(F)F)cc(C)n1 (stereo not drawn) [Example 122, (3-(2,2-difluoroethyl)-2-(2,6-dimethylpyridin-4-yl)-1H-indol-5-yl)(hexahydropyrrolo [3,4-c]pyrrol-2(1H)-yl)methanone] |
| 177 | 836 | 2.9 |  |  | CCc1c(-c2ccc(OC)c(OC)c2)[nH]c2ccc(C(=O)N3CCN(C4CCN(C(C)C)CC4)CC3)cc12 [Example 80, (2-(3,4-dimethoxyphenyl)-3-ethyl-1H-indol-5-yl)(4-(I-isopropylpiperidin-4-yl)piperazin-1-yl) methanone] |
| 31 | 2640 | 46 |  |  | Cc1cc(-c2[nH]c3ccc(C(C)(C)C(=O)N4CCCC5(CCCCC5N)C4)cc3c2C(C)C)ccn1 (stereo not drawn) [Example 152, 1-(7-amino-2-azaspiro[5.5]undecan-2-yl)-2-(3-isopropyl-2-(2-methylpyridin-4-yl)-1H-indol-5-yl)-2-methylpropan-1-one] |
| 46 | > 50000 | 320 |  |  | Cc1cc(-c2[nH]c3ccc(C(=O)N(C)Cc4cccnc4)cc3c2C(C)C)cc(C)n1 [Example 100, 2-(2,6-dimethylpyridin-4-yl)-3-isopropyl-N-methyl-N-(pyridin-3-ylmethyl)-1H-indole-5-carboxamide] |
| 223 | 1350 | 496 |  |  | Cc1cc(-c2[nH]c3ccc(C(C)C(=O)NC4CCC5CNCC54)cc3c2C(C)C)ccn1 (stereo not drawn) [Example 187, 2-(3-isopropyl-2-(2-methylpyridin-4-yl)-1H-indol-5-yl)-N-(octahydrocyclopenta[c]pyrrol-4-yl)propanamide] |
| 32 | 2470 | 3.2 |  |  | Cc1cc(-c2[nH]c3ccc(C(=O)N4CCCN(C)CC4)cc3c2C(C)C)cc(C)n1 [Example 92, (2-(2,6-dimethylpyridin-4-yl)-3-isopropyl-1H-indol-5-yl)(4-methyl-1,4-diazepan-1-yl)methanone] |
| 954 | 2090 | 16 |  |  | CCc1c(-c2ccc(OC)c(OC)c2)[nH]c2ccc(C(=O)NCCCN3CCN(C)CC3)cc12 [Example 55, 2-(3,4-dimethoxyphenyl)-3-ethyl-N-(3-(4-methylpiperazin-1-yl)propyl)-1H-indole-5-carboxamide] |
| 46 | 1310 | 72 |  |  | Cc1cc(-c2[nH]c3ccc(C(C)C(=O)N4CCC5(CCN(C)C5)CC4)cc3c2C(C)C)ccn1 (stereo not drawn) [Example 198, 2-(3-isopropyl-2-(2-methylpyridin-4-yl)-1H-indol-5-yl)-1-(2-methyl-2,8-diazaspiro[4.5]decan-8-yl)propan-1-one] |
| 167 | 1010 | 36 |  |  | Cc1cc(-c2[nH]c3ccc(C(C)(C)C(=O)N4CCNCC4)cc3c2C(C)C)ccn1 [Example 175, 2-(3-isopropyl-2-(2-methylpyridin-4-yl)-1H-indol-5-yl)-2-methyl-1-(piperazin-1-yl)propan-1-one] |
| 61 | 908 | 63 |  |  | Cc1cc(-c2[nH]c3ccc(C(C)(C)C(=O)N(C)C4CCNCC4)cc3c2C(C)C)ccn1 [Example 165, 2-(3-isopropyl-2-(2-methylpyridin-4-yl)-1H-indol-5-yl)-N,2-dimethyl-N-(piperidin-4-yl)propanamide] |
| 61 | 2160 | 61 |  |  | COc1ccc(-c2[nH]c3ccc(C(=O)N4CC5CN(C)CC5C4)cc3c2C(C)C)cc1OC (stereo not drawn) [Example 13, (2-(3,4-dimethoxyphenyl)-3-isopropyl-1H-indol-5-yl)(5-methylhexahydropyrrolo[3,4-c]pyrrol-2(1H)-yl)methanone] |
| 152 |  |  | 3890 | 106 | Cc1cc(-c2[nH]c3ccc(C(C)C(=O)NC4CCN(C(C)C)CC4)cc3c2C(C)C)ccn1 (stereo not drawn) [Example 194, 2-(3-isopropyl-2-(2-methylpyridin-4-yl)-1H-indol-5-yl)-N-(1-isopropylpiperidin-4-yl)propanamide] |
| 299 | 5270 | 1.2 |  |  | CCc1c(-c2ccc(OC)c(OC)c2)[nH]c2ccc(C(=O)N3CCN(C(C)C)CC3)cc12 [Example 38, (2-(3,4-dimethoxyphenyl)-3-ethyl-1H-indol-5-yl)(4-isopropylpiperazin-1-yl)methanone] |
| 129 | 7520 | 126 |  |  | CCN(CC)C(=O)C1CCCN(CC(=O)N2CC3CN(C(=O)c4ccc5[nH]c(-c6ccc(OC)c(OC)c6)c(C(C)C)c5c4)CC3C2)C1 (racemic) [Example 8, 1-(2-{5-[2-(3,4-dimethoxyphenyl)-3-(propan-2-yl)-1H-indole-5-carbonyl]-octahydropyrrolo[3,4-c]pyrrol-2-yl}-2-oxoethyl)-N,N-diethylpiperidine-3-carboxamide] |

| Structure (SMILES) | IC50 (human TLR7) [nM] | IC50 (human TLR9; [1]) [nM] | IC50 (human TLR8; [2]) [nM] | IC50 (human TLR9) [nM] | IC50 (human TLR8) [nM] |
| --- | --- | --- | --- | --- | --- |
| Cc1cc(-c2[nH]c3ccc(C(C)C(=O)NC4CN5CCC4CC5)cc3c2C(C)C)ccn1 (stereo not drawn) [Example 191, 2-(3-isopropyl-2-(2-methylpyridin-4-yl)-1H-indol-5-yl)-N-(quinuclidin-3-yl)propanamide] | 175 | 1290 | 209 |  |  |
